Measurements reported in paper PMC5218480 (PLoS ONE, 2017).

Test system: MV-4-11 cells
Test: Gene expression microarray analysis (Affymetrix PrimeView) and GSEA
Format: cell-based, human
Design: RFU PODN (11730768_x_at) / Fold change /veh PODN (11730768_x_at) / RFU LINC00158 (11744669_a_at) / Fold change /veh LINC00158 (11744669_a_at) / RFU DUSP10 (11751237_a_at) / Fold change /veh DUSP10 (11751237_a_at) / RFU ID3 (11757404_x_at) / Fold change /veh ID3 (11757404_x_at) / RFU PLEKHG5 (11737974_s_at) / Fold change /veh PLEKHG5 (11737974_s_at) / RFU LRRC4B (11730491_at) / Fold change /veh LRRC4B (11730491_at) / RFU GIMAP4 (11747438_a_at) / Fold change /veh GIMAP4 (11747438_a_at) / RFU KRT8 (11758183_x_at) / Fold change /veh KRT8 (11758183_x_at) / RFU CNN1 (11734310_a_at) / Fold change /veh CNN1 (11734310_a_at) / RFU VPS37D (11726825_at) / Fold change /veh VPS37D (11726825_at) / RFU C10orf10 (11716522_x_at) / Fold change /veh C10orf10 (11716522_x_at) / RFU KIR2DL2 /// KIR2DL4 /// KIR2DL5A /// KIR2DL5B /// KIR2DS1 /// KIR2DS2 /// KIR2DS3 /// KIR2DS4 /// KIR3DL3 /// KIR3DL3 /// KIR3DS1 (11738374_at) / Fold change /veh KIR2DL2 /// KIR2DL4 /// KIR2DL5A /// KIR2DL5B /// KIR2DS1 /// KIR2DS2 /// KIR2DS3 /// KIR2DS4 /// KIR3DL3 /// KIR3DL3 /// KIR3DS1 (11738374_at) / RFU C1QL1 (11718748_at) / Fold change /veh C1QL1 (11718748_at) / RFU TMPRSS4 (11747572_a_at) / Fold change /veh TMPRSS4 (11747572_a_at) / RFU HAMP (11756126_x_at) / Fold change /veh HAMP (11756126_x_at) / RFU RNFT2 (11725882_a_at) / Fold change /veh RNFT2 (11725882_a_at) / RFU NR4A2 (11747474_a_at) / Fold change /veh NR4A2 (11747474_a_at) / RFU ABCC12 (11746883_a_at) / Fold change /veh ABCC12 (11746883_a_at) / RFU TMEM136 (11760407_x_at) / Fold change /veh TMEM136 (11760407_x_at) / RFU CLDN22 /// WWC2 (11732394_at) / Fold change /veh CLDN22 /// WWC2 (11732394_at) / RFU HLA-DPB1 (11760878_x_at) / Fold change /veh HLA-DPB1 (11760878_x_at) / RFU SPINT1 (11716480_a_at) / Fold change /veh SPINT1 (11716480_a_at) / RFU GAP43 (11754022_s_at) / Fold change /veh GAP43 (11754022_s_at) / RFU A4GNT (11735810_at) / Fold change /veh A4GNT (11735810_at) / RFU PRB3 (11715151_x_at) / Fold change /veh PRB3 (11715151_x_at) / RFU TUBB4B (11761932_at) / Fold change /veh TUBB4B (11761932_at) / RFU CAPN14 (11732068_a_at) / Fold change /veh CAPN14 (11732068_a_at) / RFU TMCC2 (11721928_a_at) / Fold change /veh TMCC2 (11721928_a_at) / RFU IRGQ (11745062_a_at) / Fold change /veh IRGQ (11745062_a_at) / RFU FAM174B (11720279_a_at) / Fold change /veh FAM174B (11720279_a_at) / RFU TMPRSS4 (11748680_a_at) / Fold change /veh TMPRSS4 (11748680_a_at) / RFU FAM212B (11763350_a_at) / Fold change /veh FAM212B (11763350_a_at) / RFU PLEKHG5 (11743358_a_at) / Fold change /veh PLEKHG5 (11743358_a_at) / RFU ZSCAN30 (11745921_a_at) / Fold change /veh ZSCAN30 (11745921_a_at) / RFU CMKLR1 (11741424_a_at) / Fold change /veh CMKLR1 (11741424_a_at) / RFU LOC101060620 /// MAPK8IP1 (11723275_at) / Fold change /veh LOC101060620 /// MAPK8IP1 (11723275_at) / RFU SPTSSB (11747773_x_at) / Fold change /veh SPTSSB (11747773_x_at) / RFU PRSS12 (11739890_at) / Fold change /veh PRSS12 (11739890_at) / RFU BIN1 (11741810_x_at) / Fold change /veh BIN1 (11741810_x_at) / RFU WNT11 (11732464_a_at) / Fold change /veh WNT11 (11732464_a_at) / RFU C10orf10 (11716521_a_at) / Fold change /veh C10orf10 (11716521_a_at) / RFU C5orf56 (11738089_at) / Fold change /veh C5orf56 (11738089_at) / RFU CYB561 (11721691_x_at) / Fold change /veh CYB561 (11721691_x_at) / RFU ANKRD19P (11752326_a_at) / Fold change /veh ANKRD19P (11752326_a_at) / RFU OR2T12 /// OR2T33 /// OR2T8 (11738714_s_at) / Fold change /veh OR2T12 /// OR2T33 /// OR2T8 (11738714_s_at) / RFU VCAN (11748164_a_at) / Fold change /veh VCAN (11748164_a_at) / RFU JSRP1 (11732532_at) / Fold change /veh JSRP1 (11732532_at) / RFU KRTAP10-11 (11738290_x_at) / Fold change /veh KRTAP10-11 (11738290_x_at) / RFU MYO3A (11730013_a_at) / Fold change /veh MYO3A (11730013_a_at) / RFU EBF3 (11725865_a_at) / Fold change /veh EBF3 (11725865_a_at) / RFU CAMK2N1 (11719241_x_at) / Fold change /veh CAMK2N1 (11719241_x_at) / RFU C5orf56 (11738088_a_at) / Fold change /veh C5orf56 (11738088_a_at) / RFU OLFML3 (11715873_a_at) / Fold change /veh OLFML3 (11715873_a_at) / RFU LOC100653217 /// NTM (11731650_a_at) / Fold change /veh LOC100653217 /// NTM (11731650_a_at) / RFU MAPK11 (11762145_a_at) / Fold change /veh MAPK11 (11762145_a_at) / RFU FIZ1 (11724087_x_at) / Fold change /veh FIZ1 (11724087_x_at) / RFU OASL (11726364_x_at) / Fold change /veh OASL (11726364_x_at) / RFU SOX15 (11748057_x_at) / Fold change /veh SOX15 (11748057_x_at) / RFU CD79A (11719716_a_at) / Fold change /veh CD79A (11719716_a_at) / RFU HIST1H1D (11736915_at) / Fold change /veh HIST1H1D (11736915_at) / RFU CASKIN2 (11723855_a_at) / Fold change /veh CASKIN2 (11723855_a_at) / RFU LOC730098 (11760151_x_at) / Fold change /veh LOC730098 (11760151_x_at) / RFU OR4N2 (11742367_at) / Fold change /veh OR4N2 (11742367_at) / RFU PRRT2 (11749266_a_at) / Fold change /veh PRRT2 (11749266_a_at) / RFU SNX32 (11753110_a_at) / Fold change /veh SNX32 (11753110_a_at) / RFU CDHR5 (11726645_a_at) / Fold change /veh CDHR5 (11726645_a_at) / RFU RCAN1 (11760418_a_at) / Fold change /veh RCAN1 (11760418_a_at) / RFU FAM167A (11723789_a_at) / Fold change /veh FAM167A (11723789_a_at) / RFU FAM26E (11764081_at) / Fold change /veh FAM26E (11764081_at) / RFU ISYNA1 (11749810_s_at) / Fold change /veh ISYNA1 (11749810_s_at) / RFU ACY1 (11761880_at) / Fold change /veh ACY1 (11761880_at) / RFU 11764098_at / Fold change /veh 11764098_at / RFU SAMD14 (11745864_x_at) / Fold change /veh SAMD14 (11745864_x_at) / RFU NPB (11741838_a_at) / Fold change /veh NPB (11741838_a_at) / RFU TMPRSS6 (11731388_a_at) / Fold change /veh TMPRSS6 (11731388_a_at) / RFU KRTAP10-2 (11738614_at) / Fold change /veh KRTAP10-2 (11738614_at) / RFU ARHGAP8 /// PRR5-ARHGAP8 (11727945_x_at) / Fold change /veh ARHGAP8 /// PRR5-ARHGAP8 (11727945_x_at) / RFU KRTAP5-7 /// NADSYN1 (11734609_at) / Fold change /veh KRTAP5-7 /// NADSYN1 (11734609_at) / RFU RASL12 (11751679_a_at) / Fold change /veh RASL12 (11751679_a_at) / RFU CDKN2B (11736163_a_at) / Fold change /veh CDKN2B (11736163_a_at) / RFU PRF1 (11729649_at) / Fold change /veh PRF1 (11729649_at) / RFU, ZNF638 /// ZNF638-IT1 / Fold change vs veh, ZNF638 /// ZNF638-IT1 / RFU, PANK3 / Fold change vs veh, PANK3 / RFU, SH3YL1 / Fold change vs veh, SH3YL1 / RFU, ZEB2 / Fold change vs veh, ZEB2 / RFU, NRIP1 / Fold change vs veh, NRIP1 / RFU, PTTG1IP / Fold change vs veh, PTTG1IP / RFU, CAPN2 / Fold change vs veh, CAPN2 / RFU, MED14 / Fold change vs veh, MED14 / RFU, SNORA58 / Fold change vs veh, SNORA58 / RFU, C1orf63 / Fold change vs veh, C1orf63 / RFU, LRRFIP1 / Fold change vs veh, LRRFIP1 / RFU, NDUFAF7 / Fold change vs veh, NDUFAF7 / RFU, SLC12A2 / Fold change vs veh, SLC12A2 / RFU, IBTK / Fold change vs veh, IBTK / RFU, ESF1 / Fold change vs veh, ESF1 / Fold change vs veh, TMEM50B / RFU, TAOK1 / Fold change vs veh, TAOK1 / RFU, ACBD3 / Fold change vs veh, ACBD3 / RFU, TMA16 / Fold change vs veh, TMA16 / RFU, RWDD3 / Fold change vs veh, RWDD3 / RFU, BCAT1 / Fold change vs veh, BCAT1 / RFU, EDEM3 / Fold change vs veh, EDEM3 / RFU, TMEM33 / Fold change vs veh, TMEM33 / RFU, WDR75 / Fold change vs veh, WDR75 / RFU, AHCTF1 / Fold change vs veh, AHCTF1 / RFU, TFRC / Fold change vs veh, TFRC / RFU, ZDHHC17 / Fold change vs veh, ZDHHC17 / RFU, NOM1 / Fold change vs veh, NOM1 / RFU, ARL8B / Fold change vs veh, ARL8B / RFU, ZBTB11 / Fold change vs veh, ZBTB11 / RFU, TAMM41 / Fold change vs veh, TAMM41 / RFU, KIAA1704 /// LOC100996395 / Fold change vs veh, KIAA1704 /// LOC100996395 / RFU, ING1 / Fold change vs veh, ING1 / RFU, TRMT61B / Fold change vs veh, TRMT61B / RFU, FUBP3 / Fold change vs veh, FUBP3 / RFU, TP53 / Fold change vs veh, TP53 / RFU, TNKS2 / Fold change vs veh, TNKS2 / RFU, ZFP14 / Fold change vs veh, ZFP14 / RFU, ACTR2 / Fold change vs veh, ACTR2 / RFU, PPP3R1 / Fold change vs veh, PPP3R1 / RFU, PIK3R1 / Fold change vs veh, PIK3R1 / RFU, HNRNPA1 / Fold change vs veh, HNRNPA1 / RFU, RNF170 / Fold change vs veh, RNF170 / RFU, ZNF28 / Fold change vs veh, ZNF28 / RFU, RNGTT / Fold change vs veh, RNGTT / RFU, OGT / Fold change vs veh, OGT / RFU, BRD1 / Fold change vs veh, BRD1 / RFU, MARS / Fold change vs veh, MARS / RFU, ZNF655 / Fold change vs veh, ZNF655 / RFU, FAHD1 / Fold change vs veh, FAHD1 / RFU, BDP1 / Fold change vs veh, BDP1 / RFU, LRRCC1 / Fold change vs veh, LRRCC1 / RFU, ARID1A / Fold change vs veh, ARID1A / RFU, ZNF146 / Fold change vs veh, ZNF146 / RFU, ZNF330 / Fold change vs veh, ZNF330 / RFU, GPN3 / Fold change vs veh, GPN3 / RFU, C9orf123 / Fold change vs veh, C9orf123 / RFU, N4BP2L2 / Fold change vs veh, N4BP2L2 / RFU, ARFIP1 / Fold change vs veh, ARFIP1 / RFU, FAM179B / Fold change vs veh, FAM179B / RFU, BCL10 / Fold change vs veh, BCL10 / RFU, UHRF1BP1L / Fold change vs veh, UHRF1BP1L / RFU, BET1 / Fold change vs veh, BET1 / RFU, CNOT2 / Fold change vs veh, CNOT2 / RFU, ZNF268 / Fold change vs veh, ZNF268 / Fold change vs veh, ZNF507 / RFU, DGCR2 / Fold change vs veh, DGCR2 / RFU, WDSUB1 / Fold change vs veh, WDSUB1 / Fold change vs veh, HSP90B1 /// MIR3652 / RFU, ADSS / Fold change vs veh, ADSS / RFU, GK / Fold change vs veh, GK / RFU, ZNF148 / Fold change vs veh, ZNF148 / RFU, TAF9 / Fold change vs veh, TAF9 / RFU, SLC1A5 / Fold change vs veh, SLC1A5 / RFU, SLMO2 / Fold change vs veh, SLMO2 / RFU, ABCC4 / Fold change vs veh, ABCC4 / RFU, LOC101060439 /// RAP1B / Fold change vs veh, LOC101060439 /// RAP1B / RFU, RFX7 / Fold change vs veh, RFX7 / RFU, GTPBP10 / Fold change vs veh, GTPBP10 / RFU, CNEP1R1 / Fold change vs veh, CNEP1R1 / RFU, BIVM-ERCC5 /// ERCC5 / Fold change vs veh, BIVM-ERCC5 /// ERCC5 / RFU, ILF3 / Fold change vs veh, ILF3 / RFU 11762660_at / Fold change /veh 11762660_at / RFU VCAN (11757783_s_at) / Fold change /veh VCAN (11757783_s_at) / RFU DDX43 (11728927_at) / Fold change /veh DDX43 (11728927_at) / RFU KRT8 (11758188_x_at) / Fold change /veh KRT8 (11758188_x_at) / RFU NKD1 (11759106_at) / Fold change /veh NKD1 (11759106_at) / RFU SRD5A1 (11742802_a_at) / Fold change /veh SRD5A1 (11742802_a_at) / RFU TPSAB1 /// TPSB2 (11721975_s_at) / Fold change /veh TPSAB1 /// TPSB2 (11721975_s_at) / RFU GSTM3 (11746129_a_at) / Fold change /veh GSTM3 (11746129_a_at) / RFU IL23R (11737362_x_at) / Fold change /veh IL23R (11737362_x_at) / RFU TMEM51 (11727254_a_at) / Fold change /veh TMEM51 (11727254_a_at) / RFU PIWIL2 (11732686_x_at) / Fold change /veh PIWIL2 (11732686_x_at) / RFU ORM1 (11744905_x_at) / Fold change /veh ORM1 (11744905_x_at) / RFU CCDC152 (11743942_at) / Fold change /veh CCDC152 (11743942_at) / RFU ECM1 (11717891_a_at) / Fold change /veh ECM1 (11717891_a_at) / RFU IL23R (11748794_a_at) / Fold change /veh IL23R (11748794_a_at) / RFU TNFAIP8L3 (11732012_x_at) / Fold change /veh TNFAIP8L3 (11732012_x_at) / RFU MBOAT4 (11741988_at) / Fold change /veh MBOAT4 (11741988_at) / RFU 11764193_at / Fold change /veh 11764193_at / RFU TMEM53 (11763286_at) / Fold change /veh TMEM53 (11763286_at) / RFU MAGEB2 (11727129_at) / Fold change /veh MAGEB2 (11727129_at) / RFU TMEM200A (11744735_a_at) / Fold change /veh TMEM200A (11744735_a_at) / RFU CCDC152 (11751479_a_at) / Fold change /veh CCDC152 (11751479_a_at) / RFU FAM211A (11726209_a_at) / Fold change /veh FAM211A (11726209_a_at) / RFU RGS16 (11746705_a_at) / Fold change /veh RGS16 (11746705_a_at) / RFU VCAN (11755009_s_at) / Fold change /veh VCAN (11755009_s_at) / RFU RHOB (11743442_s_at) / Fold change /veh RHOB (11743442_s_at) / RFU RGS16 (11720943_a_at) / Fold change /veh RGS16 (11720943_a_at) / RFU RGS16 (11720944_at) / Fold change /veh RGS16 (11720944_at) / RFU, VPS4B / Fold change vs veh, VPS4B / RFU, CREB1 / Fold change vs veh, CREB1 / RFU, DNAJC13 / Fold change vs veh, DNAJC13 / RFU, GNAQ / Fold change vs veh, GNAQ / RFU, CDK5R1 / Fold change vs veh, CDK5R1 / RFU, ZRANB3 / Fold change vs veh, ZRANB3 / RFU, CUL4A / Fold change vs veh, CUL4A / RFU, CCNY / Fold change vs veh, CCNY / RFU, UFL1 / Fold change vs veh, UFL1 / RFU, COG3 / Fold change vs veh, COG3 / RFU, DIAPH2 / Fold change vs veh, DIAPH2 / RFU, SKA2 / Fold change vs veh, SKA2 / RFU, AFF3 / Fold change vs veh, AFF3 / RFU, LMF1 / Fold change vs veh, LMF1 / RFU, IPO11 / Fold change vs veh, IPO11 / RFU, DFFB / Fold change vs veh, DFFB / RFU, FOXP1 / Fold change vs veh, FOXP1 / RFU, CARD8 / Fold change vs veh, CARD8 / RFU, STRN3 / Fold change vs veh, STRN3 / RFU, ADK / Fold change vs veh, ADK / RFU, RASSF2 / Fold change vs veh, RASSF2 / RFU, WIPF1 / Fold change vs veh, WIPF1 / RFU, LARP1B / Fold change vs veh, LARP1B / RFU, RASA1 / Fold change vs veh, RASA1 / RFU, RB1 / Fold change vs veh, RB1 / RFU, PPFIA1 / Fold change vs veh, PPFIA1 / RFU, MAT2A / Fold change vs veh, MAT2A / RFU, CCT5 / Fold change vs veh, CCT5 / RFU, WDR92 / Fold change vs veh, WDR92 / RFU, CUX1 / Fold change vs veh, CUX1 / RFU, TTC7A / Fold change vs veh, TTC7A / RFU, TMEM135 / Fold change vs veh, TMEM135 / RFU, DEPTOR / Fold change vs veh, DEPTOR / RFU, CPM / Fold change vs veh, CPM / RFU, DNAJB6 / Fold change vs veh, DNAJB6 / RFU, CACNA2D3 / Fold change vs veh, CACNA2D3 / RFU, DTX4 / Fold change vs veh, DTX4 / RFU, TFCP2 / Fold change vs veh, TFCP2 / RFU, GMCL1 /// GMCL1P1 / Fold change vs veh, GMCL1 /// GMCL1P1 / RFU, AEBP2 / Fold change vs veh, AEBP2 / RFU, SNHG1 /// SNORD22 /// SNORD25 /// SNORD26 /// SNORD27 /// SNORD28 /// SNORD29 /// SNORD31 / Fold change vs veh, SNHG1 /// SNORD22 /// SNORD25 /// SNORD26 /// SNORD27 /// SNORD28 /// SNORD29 /// SNORD31 / Fold change (Aza/veh), C12orf56 (ProbeSet 11735607_a_at) / Fold change (ACY-1035/veh), C12orf56 (ProbeSet 11735607_a_at) / Fold change (Aza/veh), FGFR1OP (ProbeSet 11751329_s_at) / Fold change (ACY-1035/veh), FGFR1OP (ProbeSet 11751329_s_at) / Fold change (Aza/veh), VPS36 (ProbeSet 11739960_a_at) / Fold change (ACY-1035/veh), VPS36 (ProbeSet 11739960_a_at) / RFU SYPL1 (11715823_x_at) / Fold change /veh SYPL1 (11715823_x_at) / RFU IGFBP7 (11715501_s_at) / Fold change /veh IGFBP7 (11715501_s_at) / RFU REEP3 (11722064_at) / Fold change /veh REEP3 (11722064_at) / RFU IGLL1 (11728026_x_at) / Fold change /veh IGLL1 (11728026_x_at): dose or concentration left out as unconfirmed
Details: MV-4-11 cells, 48 hours

`Nc1ncn([C@@H]2O[C@H](CO)[C@@H](O)[C@H]2O)c(=O)n1` [azacitidine] was tested, and the “Fold change /veh RCAN1 (11760418_a_at)” value was 0.93.
